Biological target: PI3K (PIK3CA/PIK3R1) (Homo sapiens, UniProt P42336)
Assay: Michaelis-Menten kinetics
Type: biochemical

Sequence of PI3K (PIK3CA/PIK3R1) (P42336 whole entry): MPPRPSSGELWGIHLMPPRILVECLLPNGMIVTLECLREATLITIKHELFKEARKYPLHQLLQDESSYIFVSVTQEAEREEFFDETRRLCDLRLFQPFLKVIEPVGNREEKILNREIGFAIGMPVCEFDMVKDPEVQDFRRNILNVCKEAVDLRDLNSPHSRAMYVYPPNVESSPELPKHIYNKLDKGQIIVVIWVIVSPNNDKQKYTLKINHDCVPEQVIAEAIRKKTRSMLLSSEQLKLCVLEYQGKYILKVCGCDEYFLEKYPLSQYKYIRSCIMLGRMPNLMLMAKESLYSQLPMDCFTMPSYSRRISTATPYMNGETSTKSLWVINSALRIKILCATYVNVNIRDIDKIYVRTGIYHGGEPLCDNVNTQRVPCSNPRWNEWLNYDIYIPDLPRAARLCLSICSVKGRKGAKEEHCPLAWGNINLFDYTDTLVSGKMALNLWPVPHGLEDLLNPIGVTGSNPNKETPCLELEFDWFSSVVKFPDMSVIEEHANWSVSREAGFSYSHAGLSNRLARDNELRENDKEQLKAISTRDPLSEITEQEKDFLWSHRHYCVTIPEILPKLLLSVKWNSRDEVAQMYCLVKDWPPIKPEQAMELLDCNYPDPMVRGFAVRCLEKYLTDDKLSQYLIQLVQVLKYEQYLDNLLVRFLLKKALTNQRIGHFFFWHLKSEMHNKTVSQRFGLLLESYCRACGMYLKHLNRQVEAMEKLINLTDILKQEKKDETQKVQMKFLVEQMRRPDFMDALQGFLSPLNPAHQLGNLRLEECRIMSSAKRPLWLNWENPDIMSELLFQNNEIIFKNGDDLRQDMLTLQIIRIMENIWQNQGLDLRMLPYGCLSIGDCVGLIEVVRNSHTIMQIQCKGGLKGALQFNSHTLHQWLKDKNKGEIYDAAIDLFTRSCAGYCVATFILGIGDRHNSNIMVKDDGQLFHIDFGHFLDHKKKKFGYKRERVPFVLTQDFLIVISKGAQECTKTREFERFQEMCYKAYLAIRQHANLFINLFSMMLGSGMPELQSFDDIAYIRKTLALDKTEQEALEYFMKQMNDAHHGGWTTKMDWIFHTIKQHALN
Sequence of PI3K (PIK3CA/PIK3R1) (P27986 2-724 partner): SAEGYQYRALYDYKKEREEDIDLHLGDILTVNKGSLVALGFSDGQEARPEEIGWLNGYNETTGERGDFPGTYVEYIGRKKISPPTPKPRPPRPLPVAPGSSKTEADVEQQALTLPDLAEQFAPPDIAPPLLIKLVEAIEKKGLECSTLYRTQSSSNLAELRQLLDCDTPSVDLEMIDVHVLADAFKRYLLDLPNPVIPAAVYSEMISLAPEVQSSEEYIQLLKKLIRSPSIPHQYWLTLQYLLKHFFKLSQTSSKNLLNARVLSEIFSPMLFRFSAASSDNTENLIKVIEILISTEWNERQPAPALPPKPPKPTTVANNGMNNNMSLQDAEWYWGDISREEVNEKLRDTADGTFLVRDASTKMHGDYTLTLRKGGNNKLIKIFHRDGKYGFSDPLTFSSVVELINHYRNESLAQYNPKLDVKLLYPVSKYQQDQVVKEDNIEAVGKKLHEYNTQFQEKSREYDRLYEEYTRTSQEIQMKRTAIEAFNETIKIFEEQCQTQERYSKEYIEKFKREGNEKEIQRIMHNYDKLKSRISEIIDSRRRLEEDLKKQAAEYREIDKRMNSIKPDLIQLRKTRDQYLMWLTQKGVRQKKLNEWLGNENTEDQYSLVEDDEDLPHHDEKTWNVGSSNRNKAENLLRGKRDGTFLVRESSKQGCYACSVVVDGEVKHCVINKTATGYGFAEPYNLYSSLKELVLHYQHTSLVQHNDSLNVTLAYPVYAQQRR

| Substance | Km [µM] |
| --- | --- |
| BODIPY-PIP2 | 68.7 ± 5.2 |
| FL-PIP2 | 44.8 ± 9.8 |
